Source: patent publication US20210330611A1, “THERAPY FOR NEUROLOGICAL DISEASES/DISORDERS” (priority 2020, published 2021)
Counter-ions that a name gives are not always drawn. Like-named read-outs stand apart in the source and are kept apart here.

What was measured:
[1] = system: fibrin- and LPS-induced microglia activation; test: cells; assay type: cell-based, rat
primary rat microglia [2] = test: Cell toxicity (dead cells, size <150 μm2) in LPS assay
[3] = system: LPS-induced microglia activation; test: Image-based assay of LPS-induced microglia activation (HTS and dose response); assay type: cell-based, rat; conditions: for inhibition at 10 µM: Rattus norvegicus, Microglia, read-out: LPS % inhibition
primary rat microglia [4] = test: Cell toxicity (dead cells, size <150 μm2) in coated fibrin (cFib) assay;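 also: share of dead cells sized under 150 µm2 at 10 µM in fibrin-stimulated microglia HTS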
[5] = system: fibrin-induced microglia activation; test: Image-based assay of fibrin-induced microglia activation (HTS and dose response); assay type: cell-based, rat; conditions: for inhibition at 10 µM: Rattus norvegicus, Microglia, read-out: Fibrin % inhibition
[6] = quadrant by fibrin and LPS inhibition in HTS of 1907 compounds
[7] = primary microglia HTS, LPS stimulation, decreased size (<150 μm^2) as marker of toxicity
[8] = 48 h, primary microglia HTS, LPS stimulation, increased cell size (>800 μm^2) as marker of activation
[9] = primary microglia HTS, fibrin stimulation, decreased size (<150 μm^2) as marker of toxicity
[10] = primary microglia HTS, fibrin stimulation, increased cell size (>800 μm^2) as marker of activation
[11] = HTS of 1907 compounds, quadrant by fibrin and LPS inhibition
[12] = primary microglia HTS, 10 μM, LPS assay, cell size <150 μm^2 as marker of toxicity
[13] = primary microglia HTS, 10 μM, LPS-stimulated, cell size >800 μm^2 as marker of activation
[14] = primary microglia HTS, 10 μM, fibrin assay, cell size <150 μm^2 as marker of toxicity
[15] = primary microglia HTS, 10 μM, fibrin-stimulated, cell size >800 μm^2 as marker of activation
[16] = primary microglia HTS, LPS stimulation, increased cell size (>800 μm^2) as marker of activation
[17] = primary HTS, 10 μM, LPS assay, dead cells size <150 μm2
[18] = primary HTS, 10 μM, LPS-stimulated primary microglia
[19] = primary HTS, 10 μM, fibrin assay, dead cells size <150 μm2
[20] = primary HTS, 10 μM, fibrin-stimulated primary microglia
[21] = primary microglia HTS, LPS stimulation, toxicity = cell size <150 μm2
[22] = 48 h, primary microglia HTS, LPS stimulation, activation = cell size >800 μm2
[23] = primary microglia HTS, fibrin stimulation, toxicity = cell size <150 μm2
[24] = primary microglia HTS, fibrin stimulation, activation = cell size >800 μm2

Molecule: CC(C(=O)O)c1ccc(CC2CCCC2=O)cc1 (centres unmarked) [Loxoprofen]
- Quadrant (FIG. 5b) [1, 6]: Q4
- LPS % cell toxicity (primary rat microglia [2]; [7]): 0%
- inhibition at 10 µM [3, 8]: 10%
- Fibrin % cell toxicity (primary rat microglia [4]; [9]): 1%
- inhibition at 10 µM [5, 10]: -19%

Molecule: CCN(C(C)=O)c1cccc(-c2ccnc3c(C#N)cnn23)c1 [Zaleplon]
- Quadrant (FIG. 5b) [1, 11]: Q4
- LPS % cell toxicity (primary rat microglia [2]; [12]): 0%
- inhibition at 10 µM [3, 13]: 13%
- Fibrin % cell toxicity (primary rat microglia [4]; [14]): 1%
- inhibition at 10 µM [5, 15]: 16%

Molecule: C[CH2][Hg][S]c1ccccc1C(=O)O [Ethylmercurithiosalicylic acid]
- Quadrant (FIG. 5b) [1, 6]: Q2
- LPS % cell toxicity (primary rat microglia [2]; [7]): 95%
- LPS % inhibition [3, 16]: 127%
- Fibrin % cell toxicity (primary rat microglia [4]; [9]): 92%
- Fibrin % inhibition [5, 10]: 109%

Molecule: Cc1nc(C)c(Cl)c(O)c1Cl [Clopidol]
- Quadrant (FIG. 5b) ([1]; primary HTS, 10 μM): Q4
- LPS % cell toxicity (primary rat microglia [2]; [17]): 0%
- inhibition at 10 µM [3, 18]: 9%
- Fibrin % cell toxicity (primary rat microglia [4]; [19]): 1%
- inhibition at 10 µM [5, 20]: -41%

Molecule: CC(C)Oc1ccc2c(=O)c(-c3ccccc3)coc2c1 [Ipriflavone]
- Quadrant (FIG. 5b) [1, 6]: Q4
- LPS % cell toxicity (primary rat microglia [2]; [21]): 0%
- inhibition at 10 µM [3, 22]: 7%
- Fibrin % cell toxicity (primary rat microglia [4]; [23]): 1%
- inhibition at 10 µM [5, 24]: -29%

Molecule: C=C1c2c(Cl)ccc(O)c2C(=O)C2=C(O)[C@]3(O)C(=O)C(C(N)=O)=C(O)[C@@H](N(C)C)[C@@H]3[C@@H](O)[C@H]12.O=C(O)c1cc(S(=O)(=O)O)ccc1O [Meclocycline Sulfosalicylate]
- Quadrant (FIG. 5b) [1, 6]: Q4
- LPS % cell toxicity (primary rat microglia [2]; [7]): 0%
- LPS % inhibition [3, 16]: 18%
- Fibrin % cell toxicity (primary rat microglia [4]; [9]): 1%
- Fibrin % inhibition [5, 10]: 20%

Molecule: CC(C)OC(=O)CCC/C=C\C[C@@H]1[C@@H](/C=C/[C@@H](O)COc2cccc(C(F)(F)F)c2)[C@H](O)C[C@@H]1O [Travoprost]
- Quadrant (FIG. 5b) [1, 11]: Q4
- LPS % cell toxicity (primary rat microglia [2]; [12]): 0%
- inhibition at 10 µM [3, 13]: 15%
- Fibrin % cell toxicity (primary rat microglia [4]; [14]): 1%
- inhibition at 10 µM [5, 15]: 4%

Molecule: Cc1ccc(Cl)c(Nc2ccccc2C(=O)O)c1Cl [Meclofenamic Acid]
- Quadrant (FIG. 5b) [1, 6]: Q4
- LPS % cell toxicity (primary rat microglia [2]; [7]): 0%
- inhibition at 10 µM [3, 8]: 14%
- Fibrin % cell toxicity (primary rat microglia [4]; [9]): 1%
- inhibition at 10 µM [5, 10]: 12%

Molecule: Nc1ccc(S(=O)(=O)NC(=O)c2ccccc2)cc1 [Sulfabenzamide]
- Quadrant (FIG. 5b) [1, 11]: Q4
- LPS % cell toxicity (primary rat microglia [2]; [12]): 1%
- inhibition at 10 µM [3, 13]: 19%
- Fibrin % cell toxicity (primary rat microglia [4]; [14]): 1%
- inhibition at 10 µM [5, 15]: -15%

Molecule: CC(=O)Oc1cc(C(C)C)c(OCCN(C)C)cc1C [Moxisylyte]
- Quadrant (FIG. 5b) [1, 6]: Q4
- LPS % cell toxicity (primary rat microglia [2]; [7]): 0%
- inhibition at 10 µM [3, 8]: 3%
- Fibrin % cell toxicity (primary rat microglia [4]; [9]): 0%
- inhibition at 10 µM [5, 10]: -22%

Molecule: Cc1nc2ccccc2n1Cc1ccc(Cl)cc1 [Chlormidazole]
- Quadrant (FIG. 5b) [1, 6]: Q1
- LPS % cell toxicity (primary rat microglia [2]; [7]): 2%
- inhibition at 10 µM [3, 8]: 70%
- Fibrin % cell toxicity (primary rat microglia [4]; [9]): 1%
- inhibition at 10 µM [5, 10]: 38%

Molecule: CC1CCc2cc(F)cc3c(=O)c(C(=O)O)cn1c23 (centres unmarked) [Flumequine]
- Quadrant (FIG. 5b) [1, 6]: Q4
- LPS % cell toxicity (primary rat microglia [2]; [21]): 1%
- inhibition at 10 µM [3, 22]: 16%
- Fibrin % cell toxicity (primary rat microglia [4]; [23]): 0%
- inhibition at 10 µM [5, 24]: -1%

Molecule: Polymyxin B Sulfate
- Quadrant (FIG. 5b) [1, 6]: Q1
- LPS % cell toxicity (primary rat microglia [2]; [7]): 2%
- LPS % inhibition [3, 16]: 76%
- Fibrin % cell toxicity (primary rat microglia [4]; [9]): 1%
- Fibrin % inhibition [5, 10]: −25%

Molecule: C=CC[C@@H]1/C=C(\C)C[C@H](C)C[C@H](OC)[C@H]2O[C@@](O)(C(=O)C(=O)N3CCCC[C@H]3C(=O)O[C@H](/C(C)=C/[C@@H]3CC[C@@H](O)[C@H](OC)C3)[C@H](C)[C@@H](O)CC1=O)[C@H](C)C[C@@H]2OC [Tacrolimus]
- Quadrant (FIG. 5b) [1, 11]: Q4
- LPS % cell toxicity (primary rat microglia [2]; [12]): 0%
- inhibition at 10 µM [3, 13]: 14%
- Fibrin % cell toxicity (primary rat microglia [4]; [14]): 1%
- inhibition at 10 µM [5, 15]: 27%

Molecule: Mepartricin
- Quadrant (FIG. 5b) [1, 6]: Q4
- LPS % cell toxicity (primary rat microglia [2]; [7]): 0%
- LPS % inhibition [3, 16]: −1%
- Fibrin % cell toxicity (primary rat microglia [4]; [9]): 1%
- Fibrin % inhibition [5, 10]: 6%

Molecule: CCOC(=O)CC(=O)N1CCSC1COc1ccccc1OC (centres unmarked) [Moguisteine]
- Quadrant (FIG. 5b) [1, 6]: Q4
- LPS % cell toxicity (primary rat microglia [2]; [7]): 0%
- inhibition at 10 µM [3, 8]: 15%
- Fibrin % cell toxicity (primary rat microglia [4]; [9]): 1%
- inhibition at 10 µM [5, 10]: -2%

Molecule: Cc1ccc(O)cc1 [P-Cresol]
- Quadrant (FIG. 5b) [1, 6]: Q4
- LPS % cell toxicity (primary rat microglia [2]; [7]): 0%
- LPS % inhibition [3, 16]: 15%
- Fibrin % cell toxicity (primary rat microglia [4]; [9]): 0%
- Fibrin % inhibition [5, 10]: −15%

Molecule: CCOc1ccccc1OCCN[C@H](C)Cc1ccc(OC)c(S(N)(=O)=O)c1.Cl [Tamsulosin Hydrchloride]
- Quadrant (FIG. 5b) [1, 11]: Q4
- LPS % cell toxicity (primary rat microglia [2]; [12]): 0%
- LPS % inhibition [3, 13]: 12%
- Fibrin % cell toxicity (primary rat microglia [4]; [14]): 0%
- Fibrin % inhibition [5, 15]: −31%

Molecule: CC(=O)O[C@H]1C[C@H](O[C@H]2[C@@H](O)C[C@H](O[C@H]3[C@@H](O)C[C@H](O[C@H]4CC[C@@]5(C)[C@H](CC[C@@H]6[C@@H]5C[C@@H](O)[C@]5(C)[C@@H](C7=CC(=O)OC7)CC[C@]65O)C4)O[C@@H]3C)O[C@@H]2C)O[C@H](C)[C@H]1O[C@@H]1O[C@H](CO)[C@@H](O)[C@H](O)[C@H]1O [Lanatoside C]
- Quadrant (FIG. 5b) [1, 6]: Q4
- LPS % cell toxicity (primary rat microglia [2]; [21]): 1%
- LPS % inhibition ([3]; primary microglia HTS, LPS stimulation, activation = cell size >800 μm2): 35%
- Fibrin % cell toxicity (primary rat microglia [4]; [23]): 1%
- Fibrin % inhibition [5, 24]: 17%

Molecule: Oc1ccc(Cl)c2cccnc12 [Cloxyquin]
- Quadrant (FIG. 5b) ([1]; primary HTS, 10 μM): Q4
- LPS % cell toxicity (primary rat microglia [2]; [17]): 0%
- inhibition at 10 µM [3, 18]: 18%
- Fibrin % cell toxicity (primary rat microglia [4]; [19]): 0%
- inhibition at 10 µM [5, 20]: -4%

Molecule: CCCCC(CC)CNC(=N)NC(=N)NCCCCCCNC(=N)NC(=N)NCC(CC)CCCC (centres unmarked) [Alexidine Hydrochloride]
- Quadrant (FIG. 5b) [1, 6]: Q2
- LPS % cell toxicity (primary rat microglia [2]; [7]): 9%
- inhibition at 10 µM [3, 8]: 120%
- Fibrin % cell toxicity (primary rat microglia [4]; [9]): 5%
- inhibition at 10 µM [5, 10]: 108%

Molecule: Nc1ccc(S(=O)(=O)Nc2ccc(Cl)nn2)cc1 [Sulfachlorpyridazine]
- Quadrant (FIG. 5b) [1, 11]: Q4
- LPS % cell toxicity (primary rat microglia [2]; [12]): 0%
- inhibition at 10 µM [3, 13]: 14%
- Fibrin % cell toxicity (primary rat microglia [4]; [14]): 1%
- inhibition at 10 µM [5, 15]: 18%

Molecule: c1ccc2c(c1)CCCC2C1=NCCN1 (centres unmarked) [Tetryzoline]
- Quadrant (FIG. 5b) [1, 11]: Q4
- LPS % cell toxicity (primary rat microglia [2]; [12]): 0%
- inhibition at 10 µM [3, 13]: 16%
- Fibrin % cell toxicity (primary rat microglia [4]; [14]): 0%
- inhibition at 10 µM [5, 15]: -29%

Molecule: CCOc1ccccc1OCCN[C@H](C)Cc1ccc(OC)c(S(N)(=O)=O)c1 [Tamsulosin]
- Quadrant (FIG. 5b) [1, 6]: Q1
- LPS % cell toxicity (primary rat microglia [2]; [7]): 2%
- inhibition at 10 µM [3, 8]: 59%
- Fibrin % cell toxicity (primary rat microglia [4]; [9]): 1%
- inhibition at 10 µM [5, 10]: 20%

Molecule: CN(C)CCN(Cc1ccc(Cl)cc1)c1ccccn1 [Chloropyramine]
- Quadrant (FIG. 5b) ([1]; primary HTS, 10 μM): Q4
- LPS % cell toxicity (primary rat microglia [2]; [17]): 0%
- inhibition at 10 µM [3, 18]: 13%
- Fibrin % cell toxicity (primary rat microglia [4]; [19]): 1%
- inhibition at 10 µM [5, 20]: 25%
